The results in this text go back to ChEMBL document CHEMBL3397006, “Synthesis and evaluation of the diarylthiourea analogs as novel anti-cancer agents” (Bioorg Med Chem Lett, 2015).

The source made the active and inactive calls. The calls are words filed in the database; no cut-off is given here.

The subject of series [1] is LNCaP. The series is described as follows: Selectivity index, ratio of GI50 for human DU145 cells to GI50 for human LNCAP cells. It counts as functional.
The subject of series [2] is MDA-MB-453. The series is described as follows: Cytotoxicity against human MDA-MB-453 cells assessed as reduction in cell viability after 48 hrs by MTT assay. It counts as functional. To be noted: MDA-MB-453, 48 h. For orientation: Tetrazolium dyes change colour on reduction, which living cells bring about.
Series [3] has as its system MCF7. The series is described as follows: Cytotoxicity against human MCF7 cells assessed as reduction in cell viability after 48 hrs by MTT assay. It is filed as functional. To be noted: MCF7, 48 h.
Series [4] has as its system LNCaP. The series is described as follows: Cytotoxicity against human LNCAP cells assessed as reduction in cell viability after 48 hrs by MTT assay. It is filed as functional.
The test system of series [5] is T47D. Description: Cytotoxicity against human T47D cells assessed as reduction in cell viability after 48 hrs by MTT assay. It is filed as functional.
A short description of series [6]: Cytotoxicity against human PC3 cells assessed as reduction in cell viability after 48 hrs by MTT assay. It counts as functional. To be noted: PC-3, 48 h.
Series [7] concerns LNCaP. The series is described as follows: Selectivity index, ratio of GI50 for human PC3 cells to GI50 for human LNCAP cells. It counts as functional.
Series [8] relates to DU-145. The series is described as follows: Cytotoxicity against human DU145 cells assessed as reduction in cell viability after 48 hrs by MTT assay. It counts as functional. The note with it: DU-145, 48 h.
Series [9] in a line: Protein binding in plasma (unknown origin). It counts as ADME, cell-free. To be noted: read-out: PPB (converted).
The test system of series [10] is MCF7. Description: Growth inhibition of human MCF7 cells. It counts as functional.
Series [11] deals with T47D. The series is described as follows: Growth inhibition of human T47D cells. It is filed as functional.
Series [12] in a line: Growth inhibition of human PC3 cells. It is filed as functional. The note with it: PC-3.
Series [13] is described as follows: Systemic bioavailability in rat. It counts as ADME, organism-based. To be noted: in vivo.
Series [14] deals with MDA-MB-453. The series is described as follows: Growth inhibition of human MDA-MB-453 cells. It counts as functional.
In series [15] the test system is DU-145. Description: Growth inhibition of human DU145 cells. It counts as functional.
A short description of a further series: Toxicity in dog. The note with it: in vivo.
Series [16] relates to MCF7. Description: Growth inhibition of human MCF7 cells at 0.5 to 20 uM after 4 days by MTT assay. It is filed as functional, cell-based.
The subject of series [17] is T47D. Description: Growth inhibition of human T47D cells at 0.5 to 20 uM after 4 days by MTT assay. It is filed as functional, cell-based.
Series [18] deals with LNCaP. Description: Growth inhibition of human LNCAP cells at 0.5 to 20 uM after 4 days by […] assay.
Series [19] concerns MDA-MB-453. The series is described as follows: Growth inhibition of human MDA-MB-453 cells at 0.5 to 20 uM after 4 days by MTT assay. It counts as functional, cell-based.

For orientation: GI50 means the concentration at which growth is held to half of that of the control. For `CC(NC(=S)Nc1ccc([N+](=O)[O-])cc1)c1cccc2ccccc12` (stereo not drawn), the “Selectivity Index” value with LNCaP [1] and in the series on LNCaP [7] was 2 in each case. Also, the GI50 in the series on MDA-MB-453 [2] came to 6.27 µM; with MCF7 [3] it was 6.21 µM; in the series with LNCaP [4], 6.05 µM; with T47D [5], 2.94 µM; in [6] it was 13.9 µM; with DU-145 [8], 13.7 µM.

`O=[N+]([O-])c1ccc(NC(=S)Nc2ccc3c(c2)Cc2cc(Br)ccc2-3)cc1`: the 50% growth inhibitory concentration (GI50) was determined as 6.2 µM in the series on MDA-MB-453 [2]; 7.81 µM with MCF7 [3]; 11.3 µM with LNCaP [4]; 3.96 µM with T47D [5]; 16.5 µM in [6]; 17.5 µM in the series with DU-145 [8].

Regarding `Cc1cc(=O)oc2cc(NC(=S)Nc3ccc([N+](=O)[O-])cc3)ccc12`, the GI50 with MDA-MB-453 [2] was over 50 µM; in the series with MCF7 [3], 9.89 µM; with LNCaP [4], over 50 µM; with T47D [5], over 50 µM; in [6], over 50 µM; in the series on DU-145 [8] it was over 50 µM.

As to `Cc1ccc(NC(=S)Nc2ccc([N+](=O)[O-])cc2)cc1C`, the GI50 in the series on MDA-MB-453 [2] amounted to 13.5 µM; with MCF7 [3], 17 µM; in the series with LNCaP [4], 10.6 µM; in the series with T47D [5], 8.14 µM; in series [6], 26.8 µM; with DU-145 [8], 35.1 µM.

Consider `O=[N+]([O-])c1ccc(NC(=S)Nc2ccc3sccc3c2)cc1`, for which the GI50 with MDA-MB-453 [2] was over 50 µM; in the series on MCF7 [3], over 50 µM; in the series with LNCaP [4], 23.5 µM; in the series on T47D [5], 15.3 µM; in series [6], over 50 µM; in the series on DU-145 [8], over 50 µM.

As to `Cc1cc2cc(NC(=S)Nc3ccc([N+](=O)[O-])cc3)ccc2[nH]1`, the GI50 in the series with MDA-MB-453 [2] is over 50 µM; with MCF7 [3] it was over 50 µM; with LNCaP [4] it was 40.5 µM; in the series with T47D [5], 21.6 µM; in [6], over 50 µM; with DU-145 [8], over 50 µM.

Usually bioavailability stands for dose-corrected exposure relative to a reference, in per cent. For orientation: NOAEL means the highest dose or exposure tested at which no adverse effect was seen. With `CC1(C)CC(C)(C)c2cc(NC(=S)Nc3ccc([N+](=O)[O-])cc3)ccc2S1` [SHETA-2], in series [9], the fraction unbound is 0.007. The GI50 with MCF7 [10] was determined as 4.5 µM; with MDA-MB-453 [2], 3.27 µM; with MCF7 [3], 4.13 µM; in the series on LNCaP [4], 2.25 µM; in the series with T47D [11], 4.8 µM; in the series on T47D [5], 3.99 µM. The GI50 in [12] amounted to 5 µM; in [6], 4.8 µM; in the series on DU-145 [8] it was 3.47 µM; in the series with MDA-MB-453 [14] it was 5 µM; in the series on DU-145 [15], 4.9 µM. The bioavailability in [13] was under 1%. This compound also gave a no observed adverse effect level (NOAEL) in the series “Toxicity in dog” of over 1500 mg/kg.

For `CC1=C(/C=C/C(C)=C/C=C/C(C)=C/C(=O)O)C(C)(C)CCC1` [TRETINOIN], the 50% growth inhibitory concentration (GI50) with MDA-MB-453 [2] came to 9.51 µM; in the series on MCF7 [3], 12.4 µM; in the series on LNCaP [4] it was 10.3 µM; in the series on T47D [5], 0.82 µM; in [6], 12.6 µM; with DU-145 [8] it was 11.6 µM.

Turning to `O=[N+]([O-])c1ccc(NC(=S)Nc2cc3ccccc3c3ccccc23)cc1`, the GI50 was 14.5 µM in the series on MDA-MB-453 [2]; 13.3 µM in the series on MCF7 [3]; 7.29 µM in the series with LNCaP [4]; 11.6 µM with T47D [5]; 19.3 µM in [6]; 6.11 µM in the series on DU-145 [8].

With `O=c1oc2ccc(NC(=S)Nc3ccc([N+](=O)[O-])cc3)cc2c2ccccc12`, the GI50 in the series with MDA-MB-453 [2] stood at 27.6 µM; in the series on MCF7 [3] it was 13.1 µM; in the series with LNCaP [4], 12.8 µM; with T47D [5] it was 8.68 µM; in series [6] it was 22.6 µM; with DU-145 [8], 24.1 µM.

Consider `O=[N+]([O-])c1ccc(NC(=S)Nc2cc3c4ccccc4ccc3c3ccccc23)cc1`, for which the “growth inhibition (GI)” value with MCF7 [16], in the series on T47D [17], in the series on LNCaP [18] and with MDA-MB-453 [19] was “Active” throughout. For the same compound, the “Selectivity Index” value in the series with LNCaP [1] and with LNCaP [7] was 6 in each case. Also, the GI50 in the series on MDA-MB-453 [2] stood at 4.77 µM; with MCF7 [3], 3.16 µM; in the series with LNCaP [4], 3.54 µM; in the series with T47D [5], 2.53 µM; in series [6], 20 µM; with DU-145 [8] it was 21.8 µM.

In the case of `CCn1c2ccccc2c2cc(NC(=S)Nc3ccc([N+](=O)[O-])cc3)ccc21`, the GI50 with MDA-MB-453 [2] is 6.88 µM; in the series on MCF7 [3] it was 12.8 µM; in the series with LNCaP [4] it was 5.86 µM; in the series on T47D [5], 9.44 µM; in series [6], 19.6 µM; with DU-145 [8] it was 5.87 µM.
